Test results taken from patent US10307418B2, “Azole pharmaceutical formulations for parenteral administration and methods for preparing and using the same as treatment of diseases sensitive to azole compounds” (Platform Brightworks Two, Ltd., priority 2010, dated 2019).
Converted amounts (≈) assume the structure as drawn. Read-outs that look alike come from different tables or passages of the source.

Tests used:
[1] = tested on: Candida cruzei (ATCC strain 6258); test: Yeast susceptibility test, MIC (CLSI standard); format: cell-based; details: tested range 38 μg/mL to 0.03 μg/mL, read out at 24 hours, average of three experiments
Procedure: (§1) Briefly, susceptibility tests were set-up using a standardized methodology (CLSI […] standard). Drugs were diluted into RPMI-Mops medium (Yeast One Broth (Sensititer, product Y3462, Trek Diagnostic Systems, Cleveland, Ohio) Sensititer Lot number 151416SA-expiration date 2011-01). Two different strains of yeast were tested, the standardized evaluation/read out was performed at 24 hours after the start of each culture. The tests were repeated twice and all MIC (minimum inhibitory concentration) values are reported as an average of the three experiments.

Candida parapsilosis = test: Yeast susceptibility test, MIC (CLSI standard); format: cell-based; details: tested range 38 μg/mL to 0.03 μg/mL, read out at 24 hours, average of three experiments
Procedure: as §1

[2] = tested on: Aspergillus fumigatus (Clinical Lab isolate); test: Mold susceptibility test, MIC; format: cell-based; details: tested range 75 μg/mL to 0.07 μg/mL, read out at 48 hrs
Procedure: (§2) Two hyaline molds were tested with a standard read out at 48 hrs:
(§3) Tested drug range: 75 μg/mL to 0.07 μg/mL
as §1

[3] = tested on: Aspergillus fumigatus (ATCC strain 90906); test: Mold susceptibility test, MIC (CLSI M38A); format: cell-based
Procedure: as §2, §3
(§4) To further determine the antifungal activity of the compounds in the new formulation systems we investigated the efficacy of the various agents against additional strains of mucor and Aspergillus (9/-16-9/20/2010) (The Rhizomucor was a clinical isolate from a patient isolate) and the Aspergillus fumigatus (ATCC strain 90906) used was a repeat from the previously described experiment. Again, the susceptibility tests were set-up using the standardized test method (CLSI M38A). The used drugs were provided in the described H3 final use-formulation that has been previously described. All drugs were diluted in RPMI-Mops medium (YeastOne, Sensititer Lot 151416SA, expiration date January 2011).
As before two different molds were tested with a standard read out at 48 hr: • Drug dilution range 75 μg/mL to 0.07 μg/mL. • Aspergillus fumigatus (ATCC strain 90906) Zygomycete (Clinical Lab isolate, MDACC) […]

[4] = tested on: Zygomycete (Clinical Lab isolate, MDACC); test: Extended mold testing, MIC (CLSI M38A); format: cell-based; details: H3 final use-formulation, range 75 μg/mL to 0.07 μg/mL, 48 hr
Excerpt: as §4
As before two different molds were tested with a standard read out at 48 hr: • Drug dilution range 75 μg/mL to 0.07 μg/mL. • Aspergillus fumigatus (ATCC strain 90906) Zygomycete (Clinical Lab isolate, MDACC)

[5] = Maximum solubility of ITZA and azole analogues in solvents (HPLC); format: physicochemical; details: for solubility at 30 min: organic solvent or mixture, thermodynamic from solid
Procedure: ITZA and its analogues were dissolved in various solvents incubated at 37° C. for 30 minutes, cooled down to room temperature, centrifuged at 14,000 rpm for 1 min. The supernatant was analyzed using HPLC to determine the maximum solubility of ITZA and its azole analogues.
In a first step the maximum ITZA solubility in various single solvents was determined. To this end, ITZA and its analogs were dissolved in various solvents, incubated at 37° C. for 30 minutes, cooled down to room temperature, centrifuged at 14,000 rpm for 1 min. The supernatant was analyzed using HPLC to determine the maximum solubility of the respective agent.
The solubility of ITZA was determined in several individual vehicles. Briefly, a known amount of ITZA drug, formulated as a powder (Sigma Inc., St Louis, Mo.), was equilibrated in the respective solvent at RT over 1-4 hours. An aliquot was removed, filtered, and prepared for HPLC to determine maximum solubility at room temperature. Based on the ITZA solubility in each vehicle, different solvents were mixed according to the cosolvency principle in an attempt to arrive at an enhanced stable solubility. […] The stock formulation was then diluted with a final diluent, i.e. NS or D5W or DlOW, to yield a stable use-formulation. The desired range of the final use-formulation was between 1 and 5 mg/mL, as it would result in a final volume that could be safely and conveniently infused intravascularly.
An excess of ITZA as a powder was added to a multitude of chemical solvents (Table 1) at RT. Each mixture was intermittently vortexed, placed in a dark environment and checked visually for up to 4 hours for evidence of solubilization. Following centrifugation to remove solid particles, small samples were withdrawn after consecutive time intervals and the ITZA concentration was determined by HPLC as described.

[6] = Aspergillus fumigatus, 48 h, read-out: MIC
[7] = extended mold testing (repeat), H3 final use-formulation, range 75 μg/mL to 0.07 μg/mL, 48 hr
[8] = tested range 75 μg/mL to 0.07 μg/mL, read out at 48 hrs, first experiment
[9] = solvent H3D (no benzyl alcohol), single determination, read-out: Azole solubility, [Drug] mg/mL
[10] = solvent H3D (no benzyl alcohol), read-out: Azole solubility, Average mg/mL
[11] = solvent H3G (no benzyl alcohol), single determination, read-out: Azole solubility, [Drug] mg/mL
[12] = solvent H3G (no benzyl alcohol), read-out: Azole solubility, Average mg/mL
[13] = solvent H3D (no benzyl alcohol), single determination
[14] = solvent H3G (no benzyl alcohol), single determination

| Structure (SMILES) | MIC [1] | MIC (Candida parapsilosis) | MIC [2, 6] [µg/mL] | MIC [3, 7] | MIC [3, 8] | MIC [4] | MIC ([1]; Candida, ATCC6258, 24 h, read-out: MIC) [µg/mL] | MIC (Candida parapsilosis; 24 h, read-out: MIC) [µg/mL] | solubility at 30 min [5, 9] [mg/mL] | solubility at 30 min [5, 10] [mg/mL] | solubility at 30 min [5, 11] [mg/mL] | solubility at 30 min [5, 12] [mg/mL] | Azole solubility, [Drug] mg/mL [5, 13] [mg/mL] | Azole solubility, [Drug] mg/mL [5, 14] [mg/mL] | MIC ([3]; Aspergillus fumigatus, ATCC90906, 48 h, extended mold testing (repeat), H3 final use-formulation, range 75 μg/mL to 0.07 μg/mL, 48 hr, read-out: MIC) [µg/mL] | MIC ([3]; Aspergillus fumigatus, ATCC90906, 48 h, tested range 75 μg/mL to 0.07 μg/mL, read out at 48 hrs, first experiment, read-out: MIC) [µg/mL] | MIC ([4]; read-out: MIC) [µg/mL] | MIC [2] |
| --- | --- | --- | --- | --- | --- | --- | --- | --- | --- | --- | --- | --- | --- | --- | --- | --- | --- | --- |
| COC(=O)Nc1nc2ccc(C(=O)c3ccccc3)cc2[nH]1 [MBZSA, Mebendazole] | all grew (no drug effect) | all grew | 5 (≈ 16.9 µM) | all grew (no inhibition) | all grew (no drug effect) | all grew |  |  |  |  |  |  |  |  |  |  |  |  |
| CC(=O)N1CCN(c2ccc(OCC3COC(Cn4ccnc4)(c4ccc(Cl)cc4Cl)O3)cc2)CC1 (stereo not drawn) [KZSA, Ketoconazole] |  |  | 20 (≈ 37.6 µM) |  |  |  | 0.15 (≈ 0.282 µM) | 0.03 (≈ 0.0565 µM) | 15.4 (≈ 29000 µM) | 15.3 (≈ 28800 µM) | 14.8 (≈ 27800 µM) | 14.9 (≈ 28000 µM) | 15.2 | 15.1 | 10 (≈ 18.8 µM) | 20 (≈ 37.6 µM) | 38 (≈ 71.5 µM) |  |
| OC(Cn1cncn1)(Cn1cncn1)c1ccc(F)cc1F [FZSA, Fluconazole] | all grew |  |  | all grew | all grew | all grew |  | 1.2 (≈ 3.92 µM) | 38.6 (≈ 126000 µM) | 36.1 (≈ 118000 µM) | 28.4 (≈ 92700 µM) | 30.3 (≈ 98900 µM) | 33.5 | 32.2 |  |  |  | all grew |
| CCC(C)n1ncn(-c2ccc(N3CCN(c4ccc(OCC5COC(Cn6cncn6)(c6ccc(Cl)cc6Cl)O5)cc4)CC3)cc2)c1=O (stereo not drawn) [ITZA(ref 2), itraconazole] | 0.3 µg/mL (≈ 0.425 µM) | 0.15 µg/mL (≈ 0.213 µM) |  | 0.3 µg/mL (≈ 0.425 µM) | 0.6 µg/mL (≈ 0.85 µM) | 2.5 µg/mL (≈ 3.54 µM) |  |  |  |  |  |  |  |  |  |  |  | 0.3 µg/mL (≈ 0.425 µM) |
